These results are taken from ChEMBL document CHEMBL1201862, “PubChem BioAssay data set” (2004).

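Briefly, cells in 96-well plates were exposed to five compound concentrations for 48 h, and endpoints were estimated by linear interpolation. GI50 is the concentration that inhibits growth by half.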 The source made the active and inactive calls. Rule as the data show it: active = GI50 up to about 1.1 µM and inactive = higher.

Holding throughout (test): NCI-60 cell line screen, 48 h
For test [1], the system named is DMS-273.
In test [2] the test system is LXFL 529.
The subject of test [3] is DLD-1.
For test [4], the system named is HOP-18.
The test system of test [5] is KM-20L2.
The test system of test [6] is RXF 631.
Test [7] deals with M19-MEL.
The subject of test [8] is XF498.
For test [9], the system named is DMS-114.

As to `Cc1c(C(=O)C/C(=N/NC(=O)CC#N)C(N)=O)[n+]([O-])c2ccccc2[n+]1[O-]`, the GI50 in test [1] was 42 µM (inactive); in test [2], 74.1 µM (inactive); in test [3] it was 29.1 µM (inactive); in [4], > 100 µM (inactive); in [5] it was 45.2 µM (inactive); in test [6], 87.3 µM (inactive). The GI50 is 21.8 µM (inactive) in test [7], > 100 µM (inactive) in test [8] and 23.8 µM (inactive) in test [9].

On to `CC(=O)N(C)C=C1C(=O)N(C)C(=O)N(C)C1=O`, for which the GI50 in test [1], in [2], in test [3], in [4], in test [5] and in [6] was > 100 µM (inactive) each time. Further, the GI50 in [7], in test [8] and in [9] was > 100 µM (inactive) throughout.

`CN(C)CCCNc1ccc2ncn3c4ccc(O)cc4c(=O)c1c23`: the GI50 in [1] is 0.246 µM (active); in test [2], 1.87 µM (inactive); in test [3], 1.4 µM (inactive); in test [4], 3.86 µM (inactive); in test [5] it was 1.59 µM (inactive); in test [6], 0.318 µM (active). Moreover, the GI50 was 1.53 µM (inactive) in test [7], 3.83 µM (inactive) in test [8] and 0.334 µM (active) in [9].
